Earlier results, collected in article PMC3018413, “Uptake and Metabolism of the Novel Peptide Angiotensin-(1-12) by Neonatal Cardiac Myocytes” (PLoS ONE, 2011).

B1: angiotensinogen: angiotensinogen protein bound to human renal tubular epithelial cells, cited study (protein, UniProt P01019 25-476, looked up)
Angiotensinogen: DRVYIHPFHLVIHNESTCEQLAKANAGKPKDPTFIPAPIQAKTSPVDEKALQDQLVLVAAKLDTEDKLRAAMVGMLANFLGFRIYGMHSELWGVVHGATVLSPTAVFGTLASLYLGALDHTADRLQAILGVPWKDKNCTSRLDAHKVLSALQAVQGLLVAQGRADSQAQLLLSTVVGVFTAPGLHLKQPFVQGLALYTPVVLPRSLDFTELDVAAEKIDRFMQAVTGWKTGCSLMGASVDSTLAFNTYVHFQGKMKGFSLLAEPQEFWVDNSTSVSVPMLSGMGTFQHWSDIQDNFSVTQVPFTESACLLLIQPHYASDLDKVEGLTFQQNSLNWMKKLSPRTIHLTMPQLVLQGSYDLQDLLAQAELPAILHTELNLQKLSNDRIRVGEVLNSIFFELEADEREPTESTQQLNKPEVLEVTLNRPFLFAVYDQSATALHFLGRVANPLSTA

Assays:
[1] = system: Ang II formation from Ang-(1–12); settings: ref Prosser et al. [29] as printed
From the text: In the controlled environment of a cell culture system, neonatal cardiac myocytes of SHR and WKY metabolized ^125I-Ang-(1–12) into Ang I, leading to sequential production of Ang II, Ang-(1–7), and other smaller angiotensin fragments. […] This new observation is in ...

[2] = system: human renal tubular epithelial cells

| Molecule | inhibition of Ang II formation from Ang-(1–12) [1] | bound angiotensinogen that could be displaced [2] |
| --- | --- | --- |
| CC(C)C[C@H](NC(=O)[C@@H](NC(=O)N[C@@H](Cc1ccccc1)C(=O)O)[C@@H]1CCN=C(N)N1)C(=O)N[C@H](C=O)Cc1ccccc1 [chymostatin] | completely inhibited | – |
| B1 | – | ≤ 50% |
